Measurements reported in patent publication US5593984A, “Cephalosporin derivatives” (Yuhan Corporation, priority 1992, dated 1997).
≈ marks a conversion by molar mass, not a printed value.

Tests used:
Type in all cases: cell-based
Ent. aerogenes IFO 12979 = assay: MIC by agar dilution, Ent. aerogenes IFO 12979; conditions: Klebsiella aerogenes, IFO12979, 17 h, Mueller-Hinton agar, read-out: Minimal Inhibitory Concentration (MIC)
Procedure: (§1) These MIC values were determined by agar dilution method: that is, two-fold dilutions of each of the test compounds were made and dispersed in a Mueller-Hinton agar medium; standard test strain which had the 10^6 CFU (Colony Forming Unit) per ml was inoculated on the medium with microplanter (Toyo, Japan), and incubated at 35°-37° C. for 17±1 hours. The structures of Ceftazidime (CAZ) and Cefotaxime (CTX) which are used as control compounds are as follows: [drawing 12]

Ent. cloacae IFO 13535 = assay: MIC by agar dilution, Ent. cloacae IFO 13535; conditions: Enterobacter cloacae, IFO13535, 17 h; Ent. cloacae IFO 13535; agar dilution, Mueller-Hinton agar; read-out: Minimal Inhibitory Concentration (MIC)
Procedure: as §1

K. pneumoniae NCTC 9632 = assay: MIC by agar dilution, K. pneumoniae NCTC 9632; conditions: Klebsiella pneumoniae, NCTC9632, 17 h; K. pneumoniae NCTC 9632; agar dilution, Mueller-Hinton agar; read-out: Minimal Inhibitory Concentration (MIC)
Procedure: as §1

Prov. stuartii IFO 12930 = assay: MIC by agar dilution, Prov. stuartii IFO 12930; conditions: Providencia stuartii, IFO12930, 17 h, Mueller-Hinton agar, read-out: Minimal Inhibitory Concentration (MIC)
Procedure: as §1

[1] = test system: S. epidermidis ATCC 12228; assay: MIC by agar dilution, S. epidermidis ATCC 12228; conditions: Staphylococcus epidermidis, ATCC12228, 17 h; S. epidermidis ATCC 12228; agar dilution, Mueller-Hinton agar; read-out: Minimal Inhibitory Concentration (MIC)
Procedure: as §1

M. morganii DY-1 = assay: MIC by agar dilution, M. morganii DY-1; conditions: Morganella morganii, DY1, 17 h; M. morganii DY-1; agar dilution, Mueller-Hinton agar; read-out: Minimal Inhibitory Concentration (MIC)
Procedure: as §1

Staph. aureus C-57 = assay: MIC by agar dilution, Staph. aureus C-57; conditions: Staphylococcus aureus, C57, 17 h, Mueller-Hinton agar, read-out: Minimal Inhibitory Concentration (MIC)
Procedure: as §1

Staph. aureus C-5216 = assay: MIC by agar dilution, Staph. aureus C-5216; conditions: Staphylococcus aureus, C5216, 17 h, Mueller-Hinton agar, read-out: Minimal Inhibitory Concentration (MIC)
Procedure: as §1

Staph. aureus C-5113 = assay: MIC by agar dilution, Staph. aureus C-5113; conditions: Staphylococcus aureus, C5113, 17 h, Mueller-Hinton agar, read-out: Minimal Inhibitory Concentration (MIC)
Procedure: as §1

P. vulgaris NCTC 8313 = assay: MIC by agar dilution, P. vulgaris NCTC 8313; conditions: Proteus vulgaris, NCTC8313, 17 h; P. vulgaris NCTC 8313; agar dilution, Mueller-Hinton agar; read-out: Minimal Inhibitory Concentration (MIC)
Procedure: as §1

Staph. aureus ATCC 6538P = assay: MIC by agar dilution, Staph. aureus ATCC 6538P; conditions: Staphylococcus aureus, ATCC6538P, 17 h; Staph. aureus ATCC 6538P; agar dilution, Mueller-Hinton agar; read-out: Minimal Inhibitory Concentration (MIC)
Procedure: as §1

Ps. aeruginosa DY-2 = assay: MIC by agar dilution, Ps. aeruginosa DY-2; conditions: Pseudomonas aeruginosa, DY2, 17 h; Ps. aeruginosa DY-2; agar dilution, Mueller-Hinton agar; read-out: Minimal Inhibitory Concentration (MIC)
Procedure: as §1

Staph. aureus Smith = assay: MIC by agar dilution, Staph. aureus Smith; conditions: Staphylococcus aureus, 17 h, Mueller-Hinton agar, read-out: Minimal Inhibitory Concentration (MIC)
Procedure: as §1

E. coli NIHJ JC-2 = assay: MIC by agar dilution, E. coli NIHJ JC-2; conditions: Escherichia coli, NIHJJC2, 17 h; E. coli NIHJ JC-2; agar dilution, Mueller-Hinton agar; read-out: Minimal Inhibitory Concentration (MIC)
Procedure: as §1

[2] = test system: Ps. aeruginosa NCTC 10490; assay: MIC by agar dilution, Ps. aeruginosa NCTC 10490; conditions: Pseudomonas aeruginosa, NCTC10490, 17 h, Mueller-Hinton agar, read-out: Minimal Inhibitory Concentration (MIC)
Procedure: as §1

E. coli DY-1 = assay: MIC by agar dilution, E. coli DY-1; conditions: Escherichia coli, DY1, 17 h; E. coli DY-1; agar dilution, Mueller-Hinton agar; read-out: Minimal Inhibitory Concentration (MIC)
Procedure: as §1

E. coli No. 29 = assay: MIC by agar dilution, E. coli No. 29; conditions: Escherichia coli, 17 h; E. coli No. 29; agar dilution, Mueller-Hinton agar; read-out: Minimal Inhibitory Concentration (MIC)
Procedure: as §1

B. subtilis ATCC 6633 = assay: MIC by agar dilution, B. subtilis ATCC 6633; conditions: Bacillus subtilis, ATCC6633, 17 h; B. subtilis ATCC 6633; agar dilution, Mueller-Hinton agar; read-out: Minimal Inhibitory Concentration (MIC)
Procedure: as §1

[3] = test system: Ps. aeruginosa ATCC 10145; assay: MIC by agar dilution, Ps. aeruginosa ATCC 10145; conditions: Pseudomonas aeruginosa, ATCC10145, 17 h, Mueller-Hinton agar, read-out: Minimal Inhibitory Concentration (MIC)
Procedure: as §1

[4] = test system: Ser. marcescens IFO 12648; assay: MIC by agar dilution, Ser. marcescens IFO 12648; conditions: Serratia marcescens, IFO12648, 17 h; Ser. marcescens IFO 12648; agar dilution, Mueller-Hinton agar; read-out: Minimal Inhibitory Concentration (MIC)
Procedure: as §1

MIC (Ent. aerogenes IFO 12979)	MIC (Ent. cloacae IFO 13535)	MIC (K. pneumoniae NCTC 9632)	MIC (Prov. stuartii IFO 12930)	MIC [1]	MIC (M. morganii DY-1)	MIC (Staph. aureus C-57)	MIC (Staph. aureus C-5216)	MIC (Staph. aureus C-5113)	MIC (P. vulgaris NCTC 8313)	MIC (Staph. aureus ATCC 6538P)	MIC (Ps. aeruginosa DY-2)	MIC (Staph. aureus Smith)	MIC (E. coli NIHJ JC-2)	MIC [2]	MIC (E. coli DY-1)	MIC (E. coli No. 29)	MIC (B. subtilis ATCC 6633)	MIC [3]	MIC [4]	Structure (SMILES)
≤ 0.006 µg/mL	0.05 µg/mL (≈ 0.0974 µM)	≤ 0.006 µg/mL	≤ 0.006 µg/mL	0.025 µg/mL (≈ 0.0487 µM)	≤ 0.006 µg/mL	25 µg/mL (≈ 48.7 µM)	0.78 µg/mL (≈ 1.52 µM)	0.78 µg/mL (≈ 1.52 µM)	≤ 0.006 µg/mL	0.1 µg/mL (≈ 0.195 µM)	1.56 µg/mL (≈ 3.04 µM)	0.39 µg/mL (≈ 0.759 µM)	≤ 0.006 µg/mL	0.1 µg/mL (≈ 0.195 µM)	≤ 0.006 µg/mL	≤ 0.006 µg/mL	0.1 µg/mL (≈ 0.195 µM)	0.39 µg/mL (≈ 0.759 µM)	≤ 0.006 µg/mL	CON=C(C(=O)NC1C(=O)N2C(C(=O)[O-])=C(C[n+]3ccn4cccc4c3)CSC12)c1csc(N)n1 (stereo not drawn) [Ex. 1-1, 7-β-[(Z)-2-(2-aminothiazol-4-yl)2-methoxyiminoacetamido]-3-(pyrrolo[1,2a]pyrazinium-2-yl)methyl-3-cephem-4-carboxylate]
0.025 µg/mL (≈ 0.0427 µM)	3.13 µg/mL (≈ 5.34 µM)	0.2 µg/mL (≈ 0.342 µM)	0.025 µg/mL (≈ 0.0427 µM)	1.56 µg/mL (≈ 2.66 µM)	0.05 µg/mL (≈ 0.0854 µM)	100 µg/mL (≈ 171 µM)	12.5 µg/mL (≈ 21.3 µM)	25 µg/mL (≈ 42.7 µM)	≤ 0.006 µg/mL	3.13 µg/mL (≈ 5.34 µM)	6.25 µg/mL (≈ 10.7 µM)	12.5 µg/mL (≈ 21.3 µM)	0.2 µg/mL (≈ 0.342 µM)	0.39 µg/mL (≈ 0.666 µM)	0.05 µg/mL (≈ 0.0854 µM)	0.1 µg/mL (≈ 0.171 µM)	3.13 µg/mL (≈ 5.34 µM)	0.78 µg/mL (≈ 1.33 µM)	0.1 µg/mL (≈ 0.171 µM)	CC(C)(ON=C(C(=O)NC1C(=O)N2C(C(=O)[O-])=C(C[n+]3ccn4cccc4c3)CSC12)c1csc(N)n1)C(=O)O (stereo not drawn) [Ex. 2, 7-β-[(Z)-2-(2-aminothiazol-4-yl)-2-(2-carboxyprop-2-oxyimino)acetamido]-3-(pyrrolo[1,2-a]pyrazinium-2-yl)methyl-3-cephem-4-carboxylate]
0.012 µg/mL (≈ 0.0227 µM)	0.2 µg/mL (≈ 0.379 µM)	≤ 0.006 µg/mL	0.012 µg/mL (≈ 0.0227 µM)	0.025 µg/mL (≈ 0.0474 µM)	≤ 0.006 µg/mL	6.25 µg/mL (≈ 11.8 µM)	0.39 µg/mL (≈ 0.739 µM)	0.39 µg/mL (≈ 0.739 µM)	≤ 0.006 µg/mL	0.1 µg/mL (≈ 0.19 µM)	0.78 µg/mL (≈ 1.48 µM)	0.39 µg/mL (≈ 0.739 µM)	0.025 µg/mL (≈ 0.0474 µM)	0.2 µg/mL (≈ 0.379 µM)	≤ 0.006 µg/mL	≤ 0.006 µg/mL	0.1 µg/mL (≈ 0.19 µM)	0.2 µg/mL (≈ 0.379 µM)	≤ 0.006 µg/mL	CCON=C(C(=O)NC1C(=O)N2C(C(=O)[O-])=C(C[n+]3ccn4cccc4c3)CSC12)c1csc(N)n1 (stereo not drawn) [Ex. 3, 7-β-[(Z)-2-(2-aminothiazol-4-yl)-2-ethoxyiminoacetamido]-3-(pyrrolo[1,2-a]pyrazinium-2-yl)methyl-3-cephem-4-carboxylate]
0.012 µg/mL (≈ 0.0223 µM)	0.78 µg/mL (≈ 1.45 µM)	0.05 µg/mL (≈ 0.093 µM)	0.05 µg/mL (≈ 0.093 µM)	0.1 µg/mL (≈ 0.186 µM)	0.05 µg/mL (≈ 0.093 µM)	25 µg/mL (≈ 46.5 µM)	0.78 µg/mL (≈ 1.45 µM)	0.39 µg/mL (≈ 0.725 µM)	0.012 µg/mL (≈ 0.0223 µM)	0.2 µg/mL (≈ 0.372 µM)	6.25 µg/mL (≈ 11.6 µM)	0.39 µg/mL (≈ 0.725 µM)	0.39 µg/mL (≈ 0.725 µM)	0.78 µg/mL (≈ 1.45 µM)	≤ 0.006 µg/mL	0.012 µg/mL (≈ 0.0223 µM)	0.78 µg/mL (≈ 1.45 µM)	1.56 µg/mL (≈ 2.9 µM)	0.1 µg/mL (≈ 0.186 µM)	C#CCON=C(C(=O)NC1C(=O)N2C(C(=O)[O-])=C(C[n+]3ccn4cccc4c3)CSC12)c1csc(N)n1 (stereo not drawn) [Ex. 4, 7-β-[(Z)-2-(2-aminothiazol-4-yl)-2-(propyn-1-oxyimino)acetamido]-3-(pyrrolo[1,2-a]pyrazinium-2-yl)methyl-3-cephem-4-carboxylate]
